Measured values from patent US7534766B2, “Glucuronide metabolites and epimers thereof of tigecycline” (Wyeth, priority 2004, dated 2009).
Entries after “also recorded” stand apart in the source; their conditions may differ.

Experiments:
[1] = LC/MS detection of tigecycline metabolites in CD-1 mouse serum and urine after intravenous tigecycline
Description: Fifteen male CD-1 mice, with an average weight of 31.3 g at the time of dosing, were used. Animals were given food and water ad libitum. Mice in the 0.5 and 2 hour blood collection groups were housed in standard cages, while those in the 4 hour blood collection group were housed in metabolism cages for the collection of urine. Mice were dosed by the Bioresources Department at Wyeth Research, Collegeville, Pa.
For mice and rabbits, the intravenous dosing solutions was prepared by dissolving 50 mg of tigecycline in 5.0 mL of 0.9% sterile saline solution to make a working stock solution. The working stock solution was diluted with 0.9% sterile saline solution to 0.5 mg/mL for mice and 4 mg/mL for rabbits. The mouse dose (5 mg/kg, 10 mL/kg) was administered as a bolus injection via the tail vein. The rabbit dose (4 mg/kg, 1 mL/kg) was administered as a bolus injection via the marginal vein of the ear.
For mice (n=5/time point), blood (approximately 0.7 mL) was collected by cardiac puncture at 0.5, 2 and 4 hours following administration of tigecycline. For rabbits, blood (approximately 7 mL) was collected via the ear vein at 0.5, 2 and 6 hours following the tigecycline dose. Serum was separated following clot formation at room temperature and centrifugation for 15 minutes at 4° C. and 3000 rpm. The serum was transferred to a fresh tube and was stored at approximately −70° C. until analysis as described below under “Serum Sample Preparation for LC/MS Analysis. In addition, urine was collected from mice in the 4 hour blood collection group and was stored at approximately −70° C. until analysis, as described below under “Urine Sample Preparation for LC/MS Analysis.”
Mouse urine was thawed and an aliquot (1 mL) transferred to a fresh tube. The sample was centrifuged at 14,000 rpm and room temperature for 10 minutes using a Model 5415C Eppendorf centrifuge (Brinkmann Instruments, Westbury, N.Y.) to remove any particulates. The sample was then transferred to a fresh tube and was analyzed by LC/MS, as described below under “Liquid Chromatography/Mass Spectrometry Analysis.”.
Mouse and rabbit serum samples were pooled at each collection time and analyzed for tigecycline, its epimer, tigecycline glucuronide (M7 and its epimer M6), 9-aminominocycline (M3) and N-acetyl-9-aminominocycline (M9 and its epimer M8). Aliquots of serum (500 μL) were transferred to new tubes and deuterated tigecycline (30 ng/mL final concentration) was added as an internal standard (quantitative analysis only). EDTA (40 μL of 0.5 M EDTA) was added to each sample and the samples vortex mixed. Acetonitrile (500 μL) was added to each sample, samples were vortex mixed and denatured protein separated by centrifugation at 14,000 rpm and room temperature for 10 minutes using a Model 5415C Eppendorf centrifuge (Brinkmann Instruments). The supernatant was transferred to a fresh tube and the solvent evaporated under a stream of nitrogen using a Turbovap Model LV evaporator (Caliper Life Sciences, Hopkinton, Mass.).
The HPLC system used for mass spectrometric analysis was a Waters Alliance Model 2695 HPLC system (Waters Corp., Milford, Mass.). It was equipped with a built-in autosampler and a Model 996 diode array UV detector. The UV detector was set to monitor 210-400 nm. Separations for metabolite characterization were accomplished on a Phenomenex Luna C18(2) column (150×2.1 mm, 5 μm) (Phenomenex, Torrance, Calif.) equipped with a Keystone Uniguard C18 guard column (10×2.1 mm) (Thermo Electron Corp., Bellefonte, Pa.). The column temperature was 25° C. The flow rate was 0.2 mL/min. Mobile phase A was 10 mM ammonium acetate in water and mobile phase B was acetonitrile.

[2] = in vivo
Description: An open-label, inpatient, multiple-dose tigecycline, single-dose [^14C]tigecycline metabolic disposition and mass balance study was performed in six healthy male volunteers. The clinical protocol called for twelve subjects. Of these twelve, six received the radioactive dose (subjects 1, 4, 5, 6, 7, and 8 with subject 8 later dropping out of the study.) Eligible subjects were selected based on inclusion/exclusion criteria, medical history, physical examination and additional procedures outlined in the study protocol. Each subject received a 100 mg loading dose on the morning of Day 1, followed by a 50 mg maintenance dose every 12 hours for an additional 5 doses. On the morning of study Day 4, six subjects received a single 50 mg dose of [^14C]tigecycline (50 μCi). Each tigecycline dose was administered via a 30-minute intravenous infusion.
Serum samples were collected for metabolite profiling prior to tigecycline dosing and 1, 4, 8, 24 and 48 hours following the [^14C]-labeled dose. For metabolite profiling, urine samples were collected at 0-4, 4-8, 8-24 and 24-48 hours and fecal samples were collected up to 48 hours following the [^14C]-labeled dose. Serum and urine samples, and fecal homogenates were shipped on dry ice to the Biotransformation Division of Drug Safety and Metabolism, Wyeth Research, Collegeville, Pa. The details of the sample collection and sample storage are described in the mass balance portion of the study. The 24-48 hour urine and fecal samples for subject #6 were incomplete since the subject withdrew from the study. While samples from this subject were used for metabolite profiling, the samples were not included in the mass balance calculations.
Individual serum samples, collected 1, 4 and 8 hours following the [^14C]-labeled tigecycline dose, were analyzed for metabolite profiles. […] In order to minimize the sample volume, each serum sample was divided into two samples of equal volume (approximately 9 Ml each) and extracted and analyzed separately. […] The residue was reconstituted in 300 μL of acetonitrile/water (1:9), centrifuged for 10 minutes at 14,000 rpm and room temperature using a Model 5415C Eppendorf centrifuge (Brinkmann Instruments, Westbury, N.Y.) and assayed for radioactivity and by HPLC. Selected samples were also analyzed by LC/MS.
HPLC analyses were performed using a Waters 2695 Alliance Separation Module (Waters Corp., Milford, Mass.), a Waters Model 2487 dual wavelength UV absorbance detector, set to monitor 350 nm, and was in-line with a Gilson 215 liquid handler (Gilson, Middleton, Wis.) equipped to collect fractions at 20 second intervals. Fractions were collected into 96-well deep well Luma plates and analyzed using TopCount NXT. […]

observed in mouse urine by LC/MS ([1]; mouse, in vivo, iv, 5 mg/kg) | percent of the radioactivity in serum ([2]; male, human) | Compound | further results
detected | – | CN(C)c1cc(NC(=O)CNC(C)(C)C)c(O)c2c1C[C@H]1C[C@H]3C(N(C)C)C(O[C@@H]4O[C@H](C(=O)O)[C@@H](O)[C@H](O)[C@H]4O)=C(C(N)=O)C(=O)[C@@]3(O)C(O)=C1C2=O (stereo in doubt) [Metabolite M7, tigecycline glucuronide] | –
– | 10-20% | CC(C)(C)NCC(=O)O [Metabolite M3a, t-butylaminoacetic acid] | –
detected | less than 4% | CN(C)c1cc(NC(=O)CNC(C)(C)C)c(O)c2c1C[C@H]1C[C@H]3[C@@H](N(C)C)C(O[C@@H]4O[C@H](C(=O)O)[C@@H](O)[C@H](O)[C@H]4O)=C(C(N)=O)C(=O)[C@@]3(O)C(O)=C1C2=O [Metabolite M6, epimer of tigecycline glucuronide] | detection in serum samples [2]: approximately half the serum samples
– | – | CN(C)c1cc(NC(=O)CNC(C)(C)C)c(O)c2c1C[C@H]1C[C@H]3[C@H](N(C)C)C(O)=C(C(N)=O)C(=O)[C@@]3(O)C(O)=C1C2=O [Tigecycline] | percent of serum radioactivity after correcting for the epimer formed during the extraction ([2]; male, human): 59-80%; observed in mouse serum by LC/MS ([1]; male CD-1 mice, 5 mg/kg IV tigecycline, 0.5, 2, 4 hours, 5 mg/kg): observed; also recorded: detected; observed in mouse urine by LC/MS ([1]; male CD-1 mice, 5 mg/kg IV tigecycline, urine 0-4 hours): detected
